Here are results for 23 compounds from patent US20220347175A1, “PYRIDAZINONE DERIVATIVE” (Sumitomo Dainippon Pharma Co., Ltd., priority 2018, published 2022).

The target in one test is T1, human Nav1.1 (Homo sapiens, UniProt P35498).
T1 construct: host or cells: HEK293
The test is described as follows: Amplification of Nav1.1-derived voltage-dependent sodium current (Nav1.1 current), cell line stably expressing human Nav1.1, automated patch clamp. The format is cell-based. As to conditions: for activation at 1 µM: compound 1 μmol/L. The essentials:
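Amplification rate (%) is 100 × post-compound/pre-compound Nav1.1 peak current or AUC, minus 100. Ramp-evoked sodium currents were recorded by automated patch clamp in a human Nav1.1 HEK293 stable line, restricted to cells exceeding 500 pA, with compounds added in extracellular solution containing 1% DMSO.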
On the technique in general: In patch-clamp work, channel activity is measured electrically.

The target of the next test is T2, human Nav1.5 (Homo sapiens, UniProt Q14524).
T2 construct: expressed in transfected cells; host or cells: CHO-K1 (T-REx System, ThermoFisher Scientific)
The test is described as follows: Amplification of Nav1.5-derived voltage-dependent sodium current (Nav1.5 current), cell line stably expressing human Nav1.5, automated patch clamp. The format is cell-based. The conditions noted are these: for activation at 1 µM: compound 1 μmol/L.

[1] abbreviates: HEK293 stably expressing human Nav1.1, read-out: Nav1.1 current amplification rate (%).
Setting [2] is: CHO-K1 stably expressing human Nav1.5, read-out: Nav1.5 current amplification rate (%).
Setting [3] is: 10 μmol/L compound, change of the area under the curve of Nav1.1 current (Test Result 1).
Where [4] appears, read: 10 μmol/L compound, change of the area under the curve of Nav1.5 current (Test Result 1).
Setting [5] is: compound 3 μmol/L, HEK293 stably expressing human Nav1.1.
Setting [6] is: compound 3 μmol/L, CHO-K1 stably expressing human Nav1.5.

T2 sequence (Q14524 1-2015 isoform Q14524-2): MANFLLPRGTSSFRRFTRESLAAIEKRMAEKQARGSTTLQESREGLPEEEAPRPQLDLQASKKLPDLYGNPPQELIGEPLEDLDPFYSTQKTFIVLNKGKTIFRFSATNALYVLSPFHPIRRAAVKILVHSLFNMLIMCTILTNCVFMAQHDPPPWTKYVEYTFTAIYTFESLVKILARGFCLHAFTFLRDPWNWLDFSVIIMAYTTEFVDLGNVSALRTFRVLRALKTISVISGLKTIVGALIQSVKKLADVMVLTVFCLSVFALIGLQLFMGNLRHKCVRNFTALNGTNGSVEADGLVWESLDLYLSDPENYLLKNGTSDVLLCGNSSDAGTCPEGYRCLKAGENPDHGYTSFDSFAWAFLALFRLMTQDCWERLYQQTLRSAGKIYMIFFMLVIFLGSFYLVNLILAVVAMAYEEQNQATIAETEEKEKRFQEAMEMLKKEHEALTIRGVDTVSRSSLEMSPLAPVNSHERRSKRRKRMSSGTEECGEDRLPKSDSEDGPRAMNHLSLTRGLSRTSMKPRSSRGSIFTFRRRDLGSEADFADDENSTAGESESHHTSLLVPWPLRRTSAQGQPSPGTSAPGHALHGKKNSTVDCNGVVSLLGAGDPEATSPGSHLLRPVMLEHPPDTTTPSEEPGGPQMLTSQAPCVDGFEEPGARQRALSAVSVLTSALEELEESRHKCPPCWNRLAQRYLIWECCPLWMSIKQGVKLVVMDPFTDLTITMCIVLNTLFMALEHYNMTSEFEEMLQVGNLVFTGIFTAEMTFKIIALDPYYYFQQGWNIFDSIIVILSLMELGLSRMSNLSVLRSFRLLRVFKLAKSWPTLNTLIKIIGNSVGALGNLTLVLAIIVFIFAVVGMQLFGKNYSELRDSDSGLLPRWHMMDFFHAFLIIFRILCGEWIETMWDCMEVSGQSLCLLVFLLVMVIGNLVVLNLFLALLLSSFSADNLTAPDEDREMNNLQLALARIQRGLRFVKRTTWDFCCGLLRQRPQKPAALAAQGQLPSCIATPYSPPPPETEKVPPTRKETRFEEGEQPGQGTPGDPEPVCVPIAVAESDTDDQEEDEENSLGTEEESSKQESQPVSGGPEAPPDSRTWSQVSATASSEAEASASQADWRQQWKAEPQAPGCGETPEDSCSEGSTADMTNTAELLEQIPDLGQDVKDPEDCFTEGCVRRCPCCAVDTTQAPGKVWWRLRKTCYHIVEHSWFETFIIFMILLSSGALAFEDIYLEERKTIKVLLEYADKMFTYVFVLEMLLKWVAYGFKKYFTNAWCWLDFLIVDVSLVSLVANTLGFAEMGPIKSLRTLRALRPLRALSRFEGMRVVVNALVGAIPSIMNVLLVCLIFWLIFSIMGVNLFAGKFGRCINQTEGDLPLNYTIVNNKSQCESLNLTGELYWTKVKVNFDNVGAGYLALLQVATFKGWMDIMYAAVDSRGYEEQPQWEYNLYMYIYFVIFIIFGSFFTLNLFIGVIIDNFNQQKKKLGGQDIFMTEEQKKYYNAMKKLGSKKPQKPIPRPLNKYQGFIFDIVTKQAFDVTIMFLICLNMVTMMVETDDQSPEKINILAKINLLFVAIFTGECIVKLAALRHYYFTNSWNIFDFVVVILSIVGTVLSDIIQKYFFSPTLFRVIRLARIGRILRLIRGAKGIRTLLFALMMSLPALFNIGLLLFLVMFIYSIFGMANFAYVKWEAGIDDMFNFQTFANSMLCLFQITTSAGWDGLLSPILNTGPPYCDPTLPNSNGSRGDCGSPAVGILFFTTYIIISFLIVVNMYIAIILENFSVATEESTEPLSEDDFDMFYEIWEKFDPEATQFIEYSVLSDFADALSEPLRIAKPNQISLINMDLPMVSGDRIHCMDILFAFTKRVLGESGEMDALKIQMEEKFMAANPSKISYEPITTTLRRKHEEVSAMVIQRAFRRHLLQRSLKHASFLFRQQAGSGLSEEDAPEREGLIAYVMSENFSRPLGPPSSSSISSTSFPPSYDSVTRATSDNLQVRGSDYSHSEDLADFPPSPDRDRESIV

In the case of `Cc1cnc2cc(NC(=O)Cn3nc(N4CCC(C)CC4)ccc3=O)ccn12` [Example 232], the activation at 10 µM was 37% on human Nav1.1 (10 μmol/L compound, change of the area under the curve of Nav1.1 current (Test Result 1), read-out: Nav1.1 current amplification rate (%)) and 8% on human Nav1.5 (10 μmol/L compound, change of the area under the curve of Nav1.5 current (Test Result 1), read-out: Nav1.5 current amplification rate (%)).

Turning to `CC1(C)CCN(c2ccc(=O)n(CC(=O)N3CCc4c(-c5cccnc5)cccc43)n2)CC1` [Example 234], the activation at 1 µM was found to be 240% on human Nav1.1 (setting [1]) and 4% at human Nav1.5 (setting [2]).

In the case of `CC1(C)CCN(c2ccc(=O)n(CC(=O)N3CCc4c(-c5ccnnc5)cccc43)n2)CC1` [Example 235], the values for the activation at 1 µM at human Nav1.1 (setting [1]) and at human Nav1.5 (setting [2]) were 198% and 7%, respectively.

As for `CC1CC=C(c2ccc(=O)n(CC(=O)Nc3ccc4oc(N(C)C)nc4c3)n2)CC1` (stereo not shown) [Example 244, N-[2-(dimethylamino)-1,3-benzooxazol-5-yl]-2-[3-(4-methylcyclohex-1-en)-6-oxopyridazin-1(6H)-yl]acetamide], the activation at 3 µM is 263% at human Nav1.1 (compound 3 μmol/L, HEK293 stably expressing human Nav1.1, read-out: Nav1.1 current amplification rate (%)) and 21% on human Nav1.5 (compound 3 μmol/L, CHO-K1 stably expressing human Nav1.5, read-out: Nav1.5 current amplification rate (%)).

As to `CC1CC=C(c2ccc(=O)n(CC(=O)N3CC=C(c4cccnc4)CC3)n2)CC1` (stereo not shown) [Example 402], the “Nav1.1 current amplification rate (%)” value at human Nav1.1 (setting [3]) was 323%. Also, the “Nav1.5 current amplification rate (%)” value at human Nav1.5 (setting [4]) is 21%.

As for `COc1cncc(C2=CCN(C(=O)Cn3nc(C4=CCC(C)CC4)ccc3=O)CC2)c1` (stereo not shown) [Example 403], on human Nav1.1 (setting [3]), the “Nav1.1 current amplification rate (%)” value is recorded as 270%. Besides, the “Nav1.5 current amplification rate (%)” value at human Nav1.5 (setting [4]) is reported as 12%.

`CC1CC=C(c2ccc(=O)n(CC(=O)N3CC=C(c4nccc5occc45)CC3)n2)CC1` (stereo not shown) [Example 404]: the “Nav1.1 current amplification rate (%)” value at human Nav1.1 (setting [3]) is reported as 42%. Further, the “Nav1.5 current amplification rate (%)” value on human Nav1.5 (setting [4]) is recorded as 6%.

Regarding `CC1CC=C(c2ccc(=O)n(CC(=O)N3CCN(c4cncc(OC(F)F)c4)CC3)n2)CC1` (stereo not shown) [Example 405], the “Nav1.1 current amplification rate (%)” value on human Nav1.1 (setting [5]) is reported as 268%. For the same compound, at human Nav1.5 (setting [6]), the “Nav1.5 current amplification rate (%)” value is 14%.

With `COc1ccc(N2CCN(C(=O)Cn3nc(C4=CCC(C)CC4)ccc3=O)CC2)cn1` (stereo not shown) [Example 407], the “Nav1.1 current amplification rate (%)” value at human Nav1.1 (setting [5]) is listed as 113%. Besides, the “Nav1.5 current amplification rate (%)” value at human Nav1.5 (setting [6]) was determined as 6%.

`COc1ncc(N2CCN(C(=O)Cn3nc(C4=CCC(C)CC4)ccc3=O)CC2)cc1F` (stereo not shown) [Example 409]: on human Nav1.1 (setting [5]), the “Nav1.1 current amplification rate (%)” value was found to be 244%. Moreover, the “Nav1.5 current amplification rate (%)” value on human Nav1.5 (setting [6]) turned out to be 11%.

For `Cc1ncccc1N1CCN(C(=O)Cn2nc(C3=CCC(C)CC3)ccc2=O)CC1` (stereo not shown) [Example 410], the “Nav1.1 current amplification rate (%)” value on human Nav1.1 (setting [5]) is 66%. Also, the “Nav1.5 current amplification rate (%)” value at human Nav1.5 (setting [6]) is on record as 10%.

As for `COc1cc(N2CCN(C(=O)Cn3nc(C4=CCC(C)CC4)ccc3=O)CC2)ccc1F` (stereo not shown) [Example 413], at human Nav1.1 (setting [5]), the “Nav1.1 current amplification rate (%)” value worked out at 27%. Also, at human Nav1.5 (setting [6]), the “Nav1.5 current amplification rate (%)” value worked out at 1%.

As to `CC1CC=C(c2ccc(=O)n(CC(=O)N3CCN(c4nccs4)CC3)n2)CC1` (stereo not shown) [Example 414], on human Nav1.1 (setting [3]), the “Nav1.1 current amplification rate (%)” value amounted to 40%. Besides, the “Nav1.5 current amplification rate (%)” value on human Nav1.5 (setting [4]) is recorded as −2%.

As for `CC1CC=C(c2ccc(=O)n(CC(=O)N3CCN(c4cnn(C)c4)CC3)n2)CC1` (stereo not shown) [Example 415], the “Nav1.1 current amplification rate (%)” value at human Nav1.1 (setting [3]) is given as 93%. At human Nav1.5 (setting [4]), the “Nav1.5 current amplification rate (%)” value is recorded as 2%.

For the compound `CC1CC=C(c2ccc(=O)n(CC(=O)N3CC(C)N(c4cccnc4)C(C)C3)n2)CC1` (stereo not shown) [Example 416], on human Nav1.1 (setting [3]), the “Nav1.1 current amplification rate (%)” value turned out to be 383%. Moreover, the “Nav1.5 current amplification rate (%)” value at human Nav1.5 (setting [4]) is reported as 86%.

In the case of `CC1CC=C(c2ccc(=O)n(CC(=O)N3C[C@H](C)N(c4cccnc4)C[C@H]3C)n2)CC1` (stereo partly shown) [Example 417], the “Nav1.1 current amplification rate (%)” value at human Nav1.1 (setting [5]) is listed as 23%. Moreover, the “Nav1.5 current amplification rate (%)” value on human Nav1.5 (setting [6]) was determined as 1%.

On to `COc1cnc(C)c(N2CCN(C(=O)Cn3nc(C4=CCC(C)CC4)ccc3=O)CC2)c1` (stereo not shown) [Example 418], for which the “Nav1.1 current amplification rate (%)” value at human Nav1.1 (setting [5]) is on record as 105%. For the same compound, the “Nav1.5 current amplification rate (%)” value on human Nav1.5 (setting [6]) was 7%.

As for `CC1CC=C(c2ccc(=O)n(CC(=O)Nc3ccn4cc(C(F)(F)F)nc4c3)n2)CC1` (stereo not shown) [Example 421], the “Nav1.1 current amplification rate (%)” value on human Nav1.1 (setting [3]) is reported as 199%. At human Nav1.5 (setting [4]), the “Nav1.5 current amplification rate (%)” value was 34%.

For the compound `Cc1nc2cc(NC(=O)Cn3nc(C4=CCC(C)CC4)ccc3=O)ccc2o1` (stereo not shown) [Example 422], the “Nav1.1 current amplification rate (%)” value at human Nav1.1 (setting [3]) is 287%. The “Nav1.5 current amplification rate (%)” value on human Nav1.5 (setting [4]) is given as 28%.

On to `Cc1noc2ccc(NC(=O)Cn3nc(C4=CCC(C)CC4)ccc3=O)cc12` (stereo not shown) [Example 423], for which the “Nav1.1 current amplification rate (%)” value at human Nav1.1 (setting [3]) is 11%. For the same compound, the “Nav1.5 current amplification rate (%)” value on human Nav1.5 (setting [4]) is on record as 4%.

On to `CC1CC=C(c2ccc(=O)n(CC(=O)N3CC4(C3)CN(c3cccnc3)C4)n2)CC1` (stereo not shown) [Example 424], for which, on human Nav1.1 (setting [3]), the “Nav1.1 current amplification rate (%)” value is listed as 40%. The “Nav1.5 current amplification rate (%)” value on human Nav1.5 (setting [4]) is given as 2%.

`CC1(C)CC=C(c2ccc(=O)n(CC(=O)Nc3ccn4ccnc4c3)n2)CC1` [Example 425]: the “Nav1.1 current amplification rate (%)” value at human Nav1.1 (setting [3]) was determined as 283%. Besides, the “Nav1.5 current amplification rate (%)” value on human Nav1.5 (setting [4]) is reported as 60%.

For `CC1(C)CC=C(c2ccc(=O)n(CC(=O)Nc3ccc4c(c3)OCC4)n2)CC1` [Example 426], the “Nav1.1 current amplification rate (%)” value at human Nav1.1 (setting [3]) is given as 244%. Further, the “Nav1.5 current amplification rate (%)” value on human Nav1.5 (setting [4]) is reported as 20%.
